# Data published in patent US20220389003A1, “4-SUBSTITUTED INDOLE AND INDAZOLE SULFONAMIDO DERIVATIVES AS PARG INHIBITORS” (IDEAYA BIOSCIENCES, INC., priority 2019, published 2022).
# What was measured:
# PARG [1] = molecular target: T1, PARG (Homo sapiens, UniProt Q86W56); assay: Inhibition of PARG enzymatic assay (TR-FRET enzymatic IC50 assay); format: biochemical; set-up: purchased Peak Proteins; conditions: hPARG 250 pM, biotinylated-PARylated PARP substrate 30 nM
# In short: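 Compound preincubated 1 h with 250 pM His-tagged hPARG, then 30 nM biotinylated PARylated hPARP1 substrate added for 10 min; buffer 50 mM Tris-HCl pH 7.4, EDTA/EGTA, 1 mM DTT, 23° C. TR-FRET read after 1 h with anti-His ULight antibody and streptavidin-europium; inhibition scaled between DMSO and no-enzyme controls.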
# PARG [2] = molecular target: T1, PARG; assay: Inhibition of PARG cellular assay (PAR foci in HeLa cells after MMS); format: cell-based; set-up: endogenous in cells; host or cells: HeLa; conditions: compound 1 h then MMS 1 h
# In short: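 HeLa cells pretreated with compound for 1 h, then given MMS for a further 1 h, fixed and immunostained for PAR polymer. High-content imaging quantified nuclear PAR foci intensity (PAR Foci IC50) and percent cells with foci signal >1.3 (PAR % positive IC50).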
# [3] = tested on: HCC1806-XRCC1 KD (knock down) cells; assay: Cellular viability assay (Cell Titer-Glo); format: cell-based; conditions: 96 h, HCC1806-shXRCC1 cells, 4 days of incubation, read-out: PARGi cell viability
# Experimental: HCC1806-XRCC1 KD (knock down) cells were plated at 2000 cells/well in 96-well white plates with clear flat bottom. After 24 hours, the compounds of the disclosure were added starting at 30 μM for a 9-point dose response curve at 1:3 dilution. The compounds of the disclosure were added by Tecan digital dispenser excluding the outermost wells of the plate. All treatments were done in duplicates. After 4 days of incubation, 50 ul of Cell Titer-Glo (Promega) was added per well. After incubation with the reagent for 15 minutes, luminescence was read using a plate reader (TECAN). Average values of DMSO treated wells in a plate was calculated. All data points were normalized to that of the average DMSO value. The % of control for each sample compared to DMSO treated control samples. Curves are fit as % of control vs. log [compound concentration] using a 4 parameter inhibition model (Levenberg-Marquardt algorithm):
# Fit=(A+((B−A)/(1+((C/x)^D))))
# T1 sequence (Q86W56 whole entry): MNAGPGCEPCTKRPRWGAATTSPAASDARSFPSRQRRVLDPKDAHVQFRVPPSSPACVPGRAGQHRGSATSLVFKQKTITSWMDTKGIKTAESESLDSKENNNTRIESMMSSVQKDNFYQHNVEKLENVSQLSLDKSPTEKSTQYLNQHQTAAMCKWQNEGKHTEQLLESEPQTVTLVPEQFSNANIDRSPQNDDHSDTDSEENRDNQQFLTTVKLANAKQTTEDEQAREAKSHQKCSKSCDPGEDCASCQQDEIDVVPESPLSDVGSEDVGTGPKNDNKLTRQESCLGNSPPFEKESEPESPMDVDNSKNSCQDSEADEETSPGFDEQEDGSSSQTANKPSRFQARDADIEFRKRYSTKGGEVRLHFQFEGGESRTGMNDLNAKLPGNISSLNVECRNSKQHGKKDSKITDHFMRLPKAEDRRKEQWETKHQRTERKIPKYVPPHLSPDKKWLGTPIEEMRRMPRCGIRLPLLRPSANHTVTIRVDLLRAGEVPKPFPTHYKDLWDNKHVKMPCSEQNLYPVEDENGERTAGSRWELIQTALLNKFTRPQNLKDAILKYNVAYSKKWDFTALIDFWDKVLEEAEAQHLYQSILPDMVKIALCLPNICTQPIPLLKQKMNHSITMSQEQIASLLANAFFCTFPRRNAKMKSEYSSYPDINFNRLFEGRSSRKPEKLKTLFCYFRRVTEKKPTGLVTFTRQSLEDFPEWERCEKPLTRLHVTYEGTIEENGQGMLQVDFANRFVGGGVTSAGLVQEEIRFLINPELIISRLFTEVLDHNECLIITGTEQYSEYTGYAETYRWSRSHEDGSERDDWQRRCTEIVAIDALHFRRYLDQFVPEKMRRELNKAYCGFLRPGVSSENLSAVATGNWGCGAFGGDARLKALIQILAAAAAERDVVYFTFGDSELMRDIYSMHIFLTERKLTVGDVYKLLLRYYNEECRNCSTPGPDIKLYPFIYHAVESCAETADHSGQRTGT
Compound,IC50 (PARG [1]),IC50 (PARG [2]),IC50 [3]
"N#CC1(NS(=O)(=O)c2cc(N3CCC(O)CC3)c3cnn(-c4nnc(C(F)F)s4)c3c2)CC1 [Example 27, 1-[({1-[5-(difluoromethyl)(1,3,4-thiadiazol-2-yl)]-4-(4-hydroxypiperidyl)-1H-indazol-6-yl}sulfonyl)amino]cyclopropanecarbonitrile]",≤ 100 nM,300 to 1000 nM,1000 to 10000 nM
"CC(C)C(=O)N1CCN(c2cc(S(=O)(=O)NC3(C#N)CC3)cc3c2ccn3-c2nnc(C(F)F)s2)CC1 [Example 28, 1-[({1-[5-(difluoromethyl)(1,3,4-thiadiazol-2-yl)]-4-[4-(2-methylpropanoyl)piperazinyl]indol-6-yl}sulfonyl)amino]cyclopropanecarbonitrile]",≤ 100 nM,≤ 100 nM,< 1000 nM
"CCN(C)C(=O)N1CCN(c2cc(S(=O)(=O)NC3(C#N)CC3)cc3c2cnn3-c2nnc(C(F)F)s2)CC1 [Example 32, [4-(1-[5-(difluoromethyl)(1,3,4-thiadiazol-2-yl)]-6-{[(cyanocyclopropyl)amino]sulfonyl}(1H-indazol-4-yl))piperazinyl]-N-ethyl-N-methylcarboxamide]",≤ 100 nM,≤ 100 nM,< 1000 nM
"N#CC1(NS(=O)(=O)c2cc(N3CCN(C(=O)N4CCC4)CC3)c3cnn(-c4nnc(C(F)F)s4)c3c2)CC1 [Example 33, 1-[({4-[4-(azetidinylcarbonyl)piperazinyl]-1-[5-(difluoromethyl)(1,3,4-thiadiazol-2-yl)]-1H-indazol-6-yl}sulfonyl)amino]cyclopropanecarbonitrile]",≤ 100 nM,≤ 100 nM,1000 to 10000 nM
"C[C@@H]1CN(c2cc(S(=O)(=O)NC3(C#N)CC3)cc3c2cnn3-c2nnc(C(F)F)s2)CCN1C(=O)N(C)C [Example 35, [(2R)-4-(1-[5-(difluoromethyl)(1,3,4-thiadiazol-2-yl)]-6-{[(cyanocyclopropyl)amino]sulfonyl}(1H-indazol-4-yl))-2-methylpiperazinyl]-N,N-dimethylcarboxamide]",≤ 100 nM,≤ 100 nM,< 1000 nM
"CC(C)C(=O)N1CCN(c2cc(S(=O)(=O)NC3(C#N)CC3)cc3c2cnn3-c2nnc(C(F)F)s2)CC1 [Example 38, 1-[({1-[5-(difluoromethyl)(1,3,4-thiadiazol-2-yl)]-4-[4-(2-methylpropanoyl)piperazinyl]-1H-indazol-6-yl}sulfonyl)amino]cyclopropanecarbonitrile]",≤ 100 nM,≤ 100 nM,< 1000 nM
"CC(C)(C)C(=O)N1CCN(c2cc(S(=O)(=O)NC3(C#N)CC3)cc3c2cnn3-c2nnc(C(F)F)s2)CC1 [Example 39, 1-[({1-[5-(difluoromethyl)(1,3,4-thiadiazol-2-yl)]-4-[4-(2,2-dimethylpropanoyl)piperazinyl]-1H-indazol-6-yl}sulfonyl)amino]cyclopropanecarbonitrile]",≤ 100 nM,≤ 100 nM,< 1000 nM
"CNC(=O)C1CCN(c2cc(S(=O)(=O)NC3(C#N)CC3)cc3c2cnn3-c2nnc(C(F)F)s2)CC1 [Example 40, [1-(1-[5-(difluoromethyl)(1,3,4-thiadiazol-2-yl)]-6-{[(cyanocyclopropyl)amino]sulfonyl}(1H-indazol-4-yl))(4-piperidyl)]-N-methylcarboxamide]",≤ 100 nM,1000 to 10000 nM,10000 to 20000 nM
"N#CC1(NS(=O)(=O)c2cc(N3CCC4(CCO4)CC3)c3cnn(-c4nnc(C(F)F)s4)c3c2)CC1 [Example 41, 1-[({1-[5-(difluoromethyl)(1,3,4-thiadiazol-2-yl)]-4-(1-oxa-7-azaspiro[3.5]non-7-yl)-1H-indazol-6-yl}sulfonyl)amino]cyclopropanecarbonitrile]",100 to 300 nM,300 to 1000 nM,1000 to 10000 nM
"CN(C)C(=O)N1CCN(c2cc(S(=O)(=O)NC3(C#N)CC3)cc3c2cnn3-c2nnc(C(F)F)s2)CC1 [Example 43, [4-(1-[5-(difluoromethyl)(1,3,4-thiadiazol-2-yl)]-6-{[(cyanocyclopropyl)amino]sulfonyl}(1H-indazol-4-yl))piperazinyl]-N,N-dimethylcarboxamide]",≤ 100 nM,≤ 100 nM,< 1000 nM
"N#CC1(NS(=O)(=O)c2cc(N3CCC4(CCCO4)CC3)c3cnn(-c4nnc(C(F)F)s4)c3c2)CC1 [Example 44, 1-[({1-[5-(difluoromethyl)(1,3,4-thiadiazol-2-yl)]-4-(1-oxa-8-azaspiro[4.5]dec-8-yl)-1H-indazol-6-yl}sulfonyl)amino]cyclopropanecarbonitrile]",300 to 1000 nM,1000 to 10000 nM,1000 to 10000 nM
"N#CC1(NS(=O)(=O)c2cc(N3CC4(COC4)C3)c3cnn(-c4nnc(C(F)F)s4)c3c2)CC1 [Example 45, 1-[({1-[5-(difluoromethyl)(1,3,4-thiadiazol-2-yl)]-4-(6-oxa-2-azaspiro[3.3]hept-2-yl)-1H-indazol-6-yl}sulfonyl)amino]cyclopropanecarbonitrile]",100 to 300 nM,300 to 1000 nM,20000 to 30000 nM
"CN1CCC2(CCN(c3cc(S(=O)(=O)NC4(C#N)CC4)cc4c3cnn4-c3nnc(C(F)F)s3)CC2)C1 [Example 46, 1-[({1-[5-(difluoromethyl)(1,3,4-thiadiazol-2-yl)]-4-(2-methyl-2,8-diazaspiro[4.5]dec-8-yl)-1H-indazol-6-yl}sulfonyl)amino]cyclopropanecarbonitrile]",100 to 300 nM,1000 to 10000 nM,1000 to 10000 nM
"N#CC1(NS(=O)(=O)c2cc(N3CCC(CO)CC3)c3cnn(-c4nnc(C(F)F)s4)c3c2)CC1 [Example 47, 1-[({1-[5-(difluoromethyl)(1,3,4-thiadiazol-2-yl)]-4-[4-(hydroxymethyl)piperidyl]-1H-indazol-6-yl}sulfonyl)amino]cyclopropanecarbonitrile]",≤ 100 nM,300 to 1000 nM,1000 to 10000 nM
"N#CC1(NS(=O)(=O)c2cc(N3C[C@H]4COC[C@H]4C3)c3cnn(-c4nnc(C(F)F)s4)c3c2)CC1 [Example 48, 1-[({4-((1S,5R)-7-oxa-3-azabicyclo[3.3.0]oct-3-yl)-1-[5-(difluoromethyl)(1,3,4-thiadiazol-2-yl)]-1H-indazol-6-yl}sulfonyl)amino]cyclopropanecarbonitrile]",100 to 300 nM,300 to 1000 nM,1000 to 10000 nM
"CC(=O)N1CCN(c2cc(S(=O)(=O)NC3(C#N)CC3)cc3c2cnn3-c2nnc(C(F)F)s2)CC1 [Example 50, 1-[({4-(4-acetylpiperazinyl)-1-[5-(difluoromethyl)(1,3,4-thiadiazol-2-yl)]-1H-indazol-6-yl}sulfonyl)amino]cyclopropanecarbonitrile]",≤ 100 nM,300 to 1000 nM,1000 to 10000 nM
"CN(C)C(=O)C1CCN(c2cc(S(=O)(=O)NC3(C#N)CC3)cc3c2cnn3-c2nnc(C(F)F)s2)CC1 [Example 51, [1-(1-[5-(difluoromethyl)(1,3,4-thiadiazol-2-yl)]-6-{[(cyanocyclopropyl)amino]sulfonyl}(1H-indazol-4-yl))(4-piperidyl)]-N,N-dimethylcarboxamide]",100 to 300 nM,300 to 1000 nM,10000 to 20000 nM
"N#CC1(NS(=O)(=O)c2cc(N3CCS(=O)(=O)CC3)c3cnn(-c4nnc(C(F)F)s4)c3c2)CC1 [Example 52, N-(1-cyanocyclopropyl)-1-(5-(difluoromethyl)-1,3,4-thiadiazol-2-yl)-4-(1,1-dioxidothiomorpholino)-1H-indazole-6-sulfonamide]",≤ 100 nM,300 to 1000 nM,1000 to 10000 nM
"N#CC1(NS(=O)(=O)c2cc(N3CCN(C(=O)N4CCCC4)CC3)c3cnn(-c4nnc(C(F)F)s4)c3c2)CC1 [Example 57, 1-[({1-[5-(difluoromethyl)(1,3,4-thiadiazol-2-yl)]-4-[4-(pyrrolidinylcarbonyl)-piperazinyl]-1H-indazol-6-yl}sulfonyl)amino]cyclopropanecarbonitrile]",≤ 100 nM,≤ 100 nM,< 1000 nM
"N#CC1(NS(=O)(=O)c2cc(N3CCN4C(=O)CC[C@H]4C3)c3cnn(-c4nnc(C(F)F)s4)c3c2)CC1 [Example 59, 1-[({4-((1S)-7-oxo-3,6-diazabicyclo[4.3.0]non-3-yl)-1-[5-(difluoromethyl)(1,3,4-thiadiazol-2-yl)]-1H-indazol-6-yl}sulfonyl)amino]cyclopropanecarbonitrile]",≤ 100 nM,300 to 1000 nM,1000 to 10000 nM
"N#CC1(NS(=O)(=O)c2cc(N3CCN4C(=O)CC[C@@H]4C3)c3cnn(-c4nnc(C(F)F)s4)c3c2)CC1 [Example 60, 1-[({4-((1R)-7-oxo-3,6-diazabicyclo[4.3.0]non-3-yl)-1-[5-(difluoromethyl)(1,3,4-thiadiazol-2-yl)]-1H-indazol-6-yl}sulfonyl)amino]cyclopropanecarbonitrile]",≤ 100 nM,100 to 300 nM,1000 to 10000 nM
